Experimental data from patent US11168102B1, “Bicyclic heteroaryl compounds and uses thereof” (Revolution Medicines, Inc., priority 2019, dated 2021).
Read-outs that look alike come from different tables or passages of the source.

System: cellular pERK in PC-9 cells (EGFR Ex19Del)
Assay: Potency assay: pERK (AlphaLISA SureFire Ultra p-ERK1/2) in PC-9 cells
Format: cell-based
Settings: read-out: SOS1 pERK IC50
[1] = Homo sapiens, PC-9, 1 h, PC-9 cells (EGFR Ex19Del), 1 hour incubation, AlphaLISA SureFire Ultra p-ERK1/2
[2] = PC-9 cells (EGFR Ex19Del), 1 hour incubation, AlphaLISA SureFire Ultra p-ERK1/2

Structure (SMILES) | IC50 [1] | other results
CC(=O)N1CC(F)(c2cc3c(N[C@H](C)c4cccc(C(F)F)c4F)ncnc3n(C)c2=O)C1 [Example 29-2] | 91.5 nM | –
C[C@@H](Nc1ncnc2c1cc(C1(F)CN(S(C)(=O)=O)C1)c(=O)n2C)c1cccc(C(F)F)c1F [Example 29-6] | 470 nM | –
C[C@@H](Nc1ncnc2c1cc(C1(F)CCC3(CC1)CS(=O)(=O)C3)c(=O)n2C)c1cccc(C(F)F)c1F [Example 29-7] | 81.1 nM | –
C[C@@H](Nc1ncnc2c1cc(C1(F)CC3(C1)CS(=O)(=O)C3)c(=O)n2C)c1cccc(C(F)F)c1F [Example 29-8] | 53.4 nM | –
C[C@@H](Nc1ncnc2c1cc(C1(F)CCP(C)(=O)CC1)c(=O)n2C)c1cccc(C(F)F)c1F (stereo partly drawn) [Example 29-9] | 163 nM | –
C[C@@H](Nc1ncnc2c1cc(C1(F)CCP(C)(=O)CC1)c(=O)n2C)c1cccc(C(F)F)c1F (stereo partly drawn) [Example 29-10] | – | IC50 [2]: 140 nM
C[C@@H](Nc1ncnc2c1cc(C1(F)CCS(=O)(=O)C1)c(=O)n2C)c1cccc(C(F)F)c1F (stereo partly drawn) [Example 29-11] | 44.3 nM | –
C[C@@H](Nc1ncnc2c1cc(C1(F)CCS(=O)(=O)C1)c(=O)n2C)c1cccc(C(F)F)c1F (stereo partly drawn) [Example 29-12] | – | IC50 [2]: 53.6 nM
C[C@@H](Nc1ncnc2c1cc(C1(F)CCN(C3COC3)CC1)c(=O)n2C)c1cccc(C(F)F)c1F [Example 29-13] | 196 nM | –
C[C@@H](Nc1ncnc2c1cc(C1(F)CCS(=N)(=O)CC1)c(=O)n2C)c1cccc(C(F)F)c1F (stereo partly drawn) [Example 29-14] | 35.5 nM | –
C[C@@H](Nc1ncnc2c1cc(C1(F)CCS(=N)(=O)CC1)c(=O)n2C)c1cccc(C(F)F)c1F (stereo partly drawn) [Example 29-15] | – | IC50 [2]: 42.2 nM
C[C@@H](Nc1ncnc2c1cc(Sc1ccccc1)c(=O)n2C)c1cccc(C(F)F)c1F [Example 30, 4-{[(1R)-1-[3-(difluoromethyl)-2-fluorophenyl]ethyl]amino}-8-methyl-6-(phenylsulfanyl)-7H,8H-pyrido[2,3-d]pyrimidin-7-one] | 2760 nM | –
C[C@@H](Nc1ncnc2c1cc(C1(N)CCOCC1)c(=O)n2C)c1cccc(C(F)F)c1F [Example 31, 6-(4-aminooxan-4-yl)-4-{[(1R)-1-[3-(difluoromethyl)-2-fluorophenyl]ethyl]amino}-8-methyl-7H,8H-pyrido-[2,3-d]pyrimidin-7-one] | 14.5 nM | –
C[C@@H](Nc1ncnc2c1cc(C1(N)CCS(=O)(=O)CC1)c(=O)n2C)c1cccc(C(F)F)c1F [Example 31-1] | 45.6 nM | –
CC(=O)NC1(c2cc3c(N[C@H](C)c4cccc(C(F)F)c4F)ncnc3n(C)c2=O)CCS(=O)(=O)CC1 [Example 31-3] | 777 nM | –
C[C@@H](Nc1ncnc2c1cc(C1(N)CC3(C1)CS(=O)(=O)C3)c(=O)n2C)c1cccc(C(F)F)c1F [Example 31-4] | 180 nM | –
C[C@@H](Nc1ncnc2c1cc(C1(N)CCC3(CC1)CS(=O)(=O)C3)c(=O)n2C)c1cccc(C(F)F)c1F [Example 31-5] | – | IC50 (Homo sapiens, PC-9, 1 h): 26.7 nM
C[C@@H](Nc1ncnc2c1cc(C1(N)CS(=O)(=O)C1)c(=O)n2C)c1cccc(C(F)F)c1F [Example 31-6] | 191 nM | –
C[C@@H](Nc1ncnc2c1cc(C1(N)CCS(=O)(=O)C1)c(=O)n2C)c1cccc(C(F)F)c1F (stereo partly drawn) [Example 31-7] | 45.6 nM | –
C[C@@H](Nc1ncnc2c1cc(C1(N)CCP(C)(=O)CC1)c(=O)n2C)c1cccc(C(F)F)c1F (stereo partly drawn) [Example 31-10] | – | IC50 [2]: 51.8 nM
C[C@@H](Nc1ncnc2c1cc(C1(N)CCP(C)(=O)CC1)c(=O)n2C)c1cccc(C(F)F)c1F (stereo partly drawn) [Example 31-11] | – | IC50 [2]: 575 nM
COC1(c2cc3c(N[C@H](C)c4cccc(C(F)F)c4F)ncnc3n(C)c2=O)CCS(=O)(=O)CC1 [Example 32, 4-(4-{[(1R)-1-[3-(difluoro-methyl)-2-fluorophenyl]ethyl]amino}-8-methyl-7-oxo-7H,8H-pyrido[2,3-d]pyrimidin-6-yl)-4-methoxy-λ1^6-thiane-1,1-dione] | 58.4 nM | –
COC1(c2cc3c(N[C@H](C)c4cccc(C(F)F)c4F)ncnc3n(C)c2=O)CCN(C(C)=O)CC1 [Example 32-1] | 124 nM | –

Structure (SMILES) | IC50 [1] | other results
CO[C@]1(c2cc3c(N[C@H](C)c4cccc(C(F)F)c4F)ncnc3n(C)c2=O)CCN(C(C)=O)C1 [Example 32-2] | 10 nM | –
COC1(c2cc3c(N[C@H](C)c4cccc(C(F)F)c4F)ncnc3n(C)c2=O)CCN(C)CC1 [Example 32-3] | – | IC50 (Homo sapiens, PC-9, 1 h): 2240 nM
COC1(c2cc3c(N[C@H](C)c4cccc(C(F)F)c4F)ncnc3n(C)c2=O)CCC2(CC1)CS(=O)(=O)C2 [Example 32-4] | 9.29 nM | –
COC1(c2cc3c(N[C@H](C)c4cccc(C(F)F)c4F)ncnc3n(C)c2=O)CC2(C1)CS(=O)(=O)C2 [Example 32-5] | 35.7 nM | –
COC1(c2cc3c(N[C@H](C)c4cccc(C(F)F)c4F)ncnc3n(C)c2=O)CCN(S(C)(=O)=O)C1 (stereo partly drawn) [Example 32-6] | 39.1 nM | –
COC1(c2cc3c(N[C@H](C)c4cccc(C(F)F)c4F)ncnc3n(C)c2=O)CN(C(C)=O)C1 [Example 32-7] | 71.4 nM | –
COC1(c2cc3c(N[C@H](C)c4cccc(C(F)F)c4F)ncnc3n(C)c2=O)CN(C)C1 [Example 32-8] | 186 nM | –
COC1(c2cc3c(N[C@H](C)c4cccc(C(F)F)c4F)ncnc3n(C)c2=O)CCN(C(C)=O)C1 (stereo partly drawn) [Example 32-9] | 16.3 nM | –
COC1(c2cc3c(N[C@H](C)c4cccc(C(F)F)c4F)ncnc3n(C)c2=O)CN(S(C)(=O)=O)C1 [Example 32-10] | 436 nM | –
COC1(c2cc3c(N[C@H](C)c4cccc(C(F)F)c4F)ncnc3n(C)c2=O)CCN(C(=O)C2CC2)CC1 [Example 32-11] | 34.5 nM | –
COC1(c2cc3c(N[C@H](C)c4cccc(C(F)F)c4F)ncnc3n(C)c2=O)CCN(C(=O)C2COC2)CC1 [Example 32-12] | 28.6 nM | –
COCC(=O)N1CCC(OC)(c2cc3c(N[C@H](C)c4cccc(C(F)F)c4F)ncnc3n(C)c2=O)CC1 [Example 32-13] | 44 nM | –
COC1(c2cc3c(N[C@H](C)c4cccc(C(F)F)c4F)ncnc3n(C)c2=O)C[C@H]2C[C@@H]1CN2C(C)=O (stereo partly drawn) [Example 32-14] | 1310 nM | –
COC1(c2cc3c(N[C@H](C)c4cccc(C(F)F)c4F)ncnc3n(C)c2=O)CC2(CN(C(C)=O)C2)C1 [Example 32-15] | 49.3 nM | –
CO[C@]1(c2cc3c(N[C@H](C)c4cccc(C(F)F)c4F)ncnc3n(C)c2=O)CCN(S(C)(=O)=O)C1 [Example 32-16] | 268 nM | –
CO[C@@]1(c2cc3c(N[C@H](C)c4cccc(C(F)F)c4F)ncnc3n(C)c2=O)CCN(S(C)(=O)=O)C1 [Example 32-17] | 29.9 nM | –
COC1(c2cc3c(N[C@H](C)c4cccc(C(F)F)c4F)ncnc3n(C)c2=O)C[C@@H]2C[C@H]1CN2C(C)=O (stereo partly drawn) [Example 32-18] | 947 nM | –
CO[C@]1(c2cc3c(N[C@H](C)c4cccc(C(F)F)c4F)ncnc3n(C)c2=O)CCN(C(C)=O)C1 [Example 32-19] | 11.3 nM | –
COC1(c2cc3c(N[C@H](C)c4cccc(C(F)F)c4F)ncnc3n(C)c2=O)CC2(CCN(C(C)=O)C2)C1 (stereo partly drawn) [Example 32-21] | 393 nM | –
COC1(c2cc3c(N[C@H](C)c4cccc(C(F)F)c4F)ncnc3n(C)c2=O)C2CCC1CN(C(C)=O)C2 (stereo partly drawn) [Example 32-22] | 180 nM | –
CO[C@@]1(c2cc3c(N[C@H](C)c4cccc(C(F)F)c4F)ncnc3n(C)c2=O)CCN(C(C)=O)C1 [Example 32-23] | 52.7 nM | –
COC1(c2cc3c(N[C@H](C)c4cccc(C(F)F)c4F)ncnc3n(C)c2=O)CCN(S(C)(=O)=O)CC1 [Example 32-24] | 69.7 nM | –
